Patent US20170290814A1, “METHODS OF TREATMENT OF CHOLESTASIS AND FIBROSIS” (GENFIT, priority 2016, published 2017)
“Also recorded” adds a separate entry of the source.

System: TGFβ1-induced expression of α-SMA protein in human HSC
Test: α-SMA ELISA in TGFβ1-activated human hepatic stellate cells
Format: cell-based
Conditions: TGFβ1 1 ng/ml, 48 h
Description: Serum-deprived HSC were preincubated for 1 hour with RM-5061 before the activation with the profibrogenic cytokine TGFβ1 (1 ng/ml). After 48 hours of incubation, the α-SMA content was measured by ELISA. The obtained values were transformed into percentage inhibition over TGFβ1 control. Data are presented as mean (quadruplicates)±standard error of the mean (SEM). Statistical analyses were performed by one-way ANOVA followed by Bonferroni post-hoc tests, using Sigma Plot 11.0 software. [*: p<0.05; **: p<0.01; ***: p<0.001 (comparison versus TGFβ1 1 ng/mL group)]. The curve fitting and the calculation of half maximal inhibitory concentration (IC50) were performed with XLFit software 5.3.1.3.
Serum-deprived HSC were preincubated for 1 hour with Cpd.5 before the activation with the profibrogenic cytokine TGFβ1 (1 ng/ml). After 48 hours of incubation, the expression of α-SMA was measured by ELISA. The obtained values were transformed into percentage inhibition over TGFβ1 control. Data are presented as mean (triplicates)±standard deviation (SD). Statistical analyses were performed by one-way ANOVA followed by Bonferroni post-hoc tests, using Sigma Plot 11.0 software. [*: p<0.05; **: p<0.01; ***: p<0.001 (comparison versus TGFμ1 1 ng/mL group)]. The curve fitting and the calculation of half maximal inhibitory concentration (IC50) were performed with XLFit software 5.3.1.3.
The human primary hepatic stellate cells (hHSC) (Innoprot) were cultured in STeCM medium (ScienCell cat #5301) that was supplemented with 2% fetal bovine serum (FBS, ScienCell cat #0010), 1% penicillin/streptomycin (ScienCell cat #0503) and stellate cell growth supplement (SteCGS; ScienCell cat #5352). Cell culture flasks were coated with Poly-L Lysine (Sigma cat #P4707) for a better adherence.
The human primary hepatic stellate cells (hHSC) (Innoprot) were cultured under standard conditions, as described above. The cells were subsequently plated at a density of 2×10^4cells/well or 6,5×10^3 cells/well into 96-well or 384-well plates respectively. The next day, cell-culture medium was removed, and cells were washed with PBS (Invitrogen cat #14190). Then, hHSC were deprived for 24 hours in serum-free and SteCGS-free medium. For the treatments with compounds of formula (I), the serum-deprived hHSC were preincubated for 1 hour with the compounds followed by addition of the profibrogenic stimuli TGFβ1 (PeproTech cat #100-21, 1 ng/mL) in serum-free and SteCGS-free medium for an additional 48 hour period. At the end of treatment, the cell culture supernatants of treated-HSC were transferred into a new plate before storage at −20° C.The cells were washed with PBS (Invitrogen, cat #14190) before the addition of lysis buffer (CelLytic™ MT reagent; Sigma #C3228). Plates were then incubated for 30 min on ice using a plate shaker, before storage at −20° C.
The level of α-SMA was measured using a Sandwich ELISA. Briefly, the wells of an ELISA plate were first coated with the capture antibody (mouse monoclonal anti-ACTA2, Abnova) at 4° C. overnight. After 3 washes in PBS +0.2% Tween 20, a blocking solution consisting of PBS +0.2% BSA was added for one hour followed by another washing cycle. The cell lysates were transferred into the wells for binding to the capture antibody for a period of 2 h at room temperature. After the washing procedure, the detection antibody (biotinylated mouse monoclonal anti-ACTA2, Abnova) was added for 2 hours at room temperature followed by 3 washes. For the detection, an HRP-conjugated Streptavidin (R&D Systems cat #DY998) was first applied for 30 min at room temperature. After washing, the HRP substrate TMB (;BD, #555214) was added and incubated for 7 min at room temperature in the dark. Upon oxidation, TMB forms a water-soluble blue reaction product that becomes yellow with addition of sulfuric acid (solution stop), enabling accurate measurement of the intensity at 450 nm using a spectrophotometer. […]

Row | SMILES | effect on TGFβ1-induced α-SMA level in human HSC | Max % I Over TGFβ, αSMA [%]
1 | [2H]C([2H])([2H])C(=O)Oc1ccccc1C(=O)Nc1ncc([N+](=O)[O-])s1 [Cpd.5, 2-[(5-nitro-1,3-thiazol-2-yl)carbamoyl]phenyl (d3)ethanoate] | inhibits | –
2 | CC(C)(C)[C@H](N)C(=O)Oc1ccccc1C(=O)Nc1ncc([N+](=O)[O-])s1 [RM-5061, (S)-2-(5-nitrothiazol-2-ylcarbamoyl)phenyl 2-amino-3,3-dimethylbutanoate] | dose-dependently reduced; also recorded: inhibits | 40
